Where a name gives a salt, the structure may show the parent alone.
SMILES	melting point
O=C1N(c2cc(Cl)cc(Cl)c2)C(=O)C2(Cc3ccc(Br)cc3)CCCN12 (centres unmarked) [Example 1, 5-(4-Bromobenzyl)-3-(3,5-dichlorophenyl)-1,3-diazabicyclo[3.3.0]octane-2,4-dione]	69.4 °C
O=C1N(c2cc(Cl)cc(Cl)c2)C(=O)C2(Cc3ccc(Br)cc3)C[C@@H](c3ccccc3)CN12 (stereo partly drawn) [Example 83, (7S)-5-(4-Bromobenzyl)-3-(3,5-dichlorophenyl)-7-phenyl-1,3-diazabicyclo[3.3.0]octane-2,4-dione]	123.5 °C
COC(=O)N1CCCC2(Cc3ccc(Br)cc3)C(=O)N(c3cc(Cl)nc(Cl)c3)C(=O)N12 (centres unmarked) [Example 102, 6-(4-Bromobenzyl)-8-(2,6-dichloro-4-pyridyl)-2-methoxycarbonyl-1,2,8-triazabicyclo[4.3.0]nonane-7,9-dione]	81 °C
CCN(CC)CCN1CCN2C(=O)N(c3cc(Cl)cc(Cl)c3)C(=O)C2(Cc2ccc(Br)cc2)C1 (centres unmarked) (as salt: HCl) [Example 32, 4-[2-(Diethylamino)ethyl]-6-(4-bromobenzyl)-8-(3,5-dichlorophenyl)-1,4,8-triazabicyclo[4.3.0]nonane-7,9-dione]	223 °C
N#Cc1ccc(CC23CCCN2C(=O)N(c2cc(Cl)cc(-n4cccc4)c2)C3=O)cc1 (centres unmarked) [Example 51, 5-(4-Cyanobenzyl)-3-[3-chloro-5-(1-pyrrolyl)-phenyl]-1,3-diazabicyclo[3.3.0]octane-2,4-dione]	266.5 °C
N#Cc1ccc(CC23CCCN2C(=O)N(CCc2cccc(Cl)c2)C3=O)cc1 (centres unmarked) [Example 107, 5-(4-Cyanobenzyl)-3-[2-(3-chlorophenyl)ethyl]-1,3-diazabicyclo[3.3.0]octane-2,4-dione]	148 °C
O=C1N(c2cc(Cl)cc(Cl)c2)C(=O)C2(Cc3ccc(Br)cc3)CNCCN12 (centres unmarked) [Example 27, 6-(4-Bromobenzyl)-8-(3,5-dichlorophenyl)-1,4,8-triazabicyclo[4.3.0]nonane-7,9-dione]	92.5 °C
O=C1N(c2cc(C(F)(F)F)cc(C(F)(F)F)c2)C(=O)C2(Cc3ccc(Br)cc3)CCCN12 (centres unmarked)	138 °C
N#Cc1ccc(CC23CCCN2C(=O)N(Cc2ccncc2)C3=O)cc1 (centres unmarked) [Example 108, 5-(4-Cyanobenzyl)-3-(4-pyridylmethyl)-1,3-diazabicyclo[3.3.0]octane-2,4-dione]	154 °C
O=C1N(c2cc(Cl)cc(Cl)c2)C(=O)[C@@]2(Cc3ccc(Br)cc3)C[C@H](O)CN12 [Example 61, (5R,7S)-5-(4-Bromobenzyl)-3-(3,5-dichlorophenyl)-7-hydroxy-1,3-diazabicyclo[3.3.0]octane-2,4-dione]	60.4 °C
CC(C)(C)OC(=O)N1CCN2C(=O)N(c3cc(Cl)cc(Cl)c3)C(=O)C2(Cc2ccc(Br)cc2)C1 (centres unmarked) (as salt: Na) [Example 26, 4-(tert-Butoxycarbonyl)-6-(4-bromobenzyl)-8-(3,5-dichlorophenyl)-1,4,8-triazabicyclo[4.3.0]nonane-7,9-dione]	79.5 °C
O=C1N(c2cc(Cl)cc(Cl)c2)C(=O)C2(Cc3ccc(Br)cc3)CC(F)(F)CN12 (centres unmarked) [Example 110, 5-(4-Bromobenzyl)-3-(3,5-dichlorophenyl)-7,7-difluoro-1,3-diazabicyclo[3.3.0]octane-2,4-dione]	160.3 °C
COC(=O)C=C1CN2C(=O)N(c3cc(Cl)cc(Cl)c3)C(=O)C2(Cc2ccc(Br)cc2)C1 (centres unmarked) [Example 36, 5-(4-Bromobenzyl)-3-(3,5-dichlorophenyl)-7-methoxycarbonylmethylene-1,3-diazabicyclo[3.3.0]octane-2,4-dione]	74.9 °C
O=C1CN2C(=O)N(c3cc(Cl)cc(Cl)c3)C(=O)C2(Cc2ccc(Br)cc2)C1 (centres unmarked) [Example 35, 5-(4-Bromobenzyl)-3-(3,5-dichlorophenyl)-1,3-diazabicyclo[3.3.0]octane-2,4,7-trione]	85.4 °C
O=C(O)CCC(=O)N[C@@H]1CN2C(=O)N(c3cc(Cl)nc(Cl)c3)C(=O)[C@@]2(Cc2ccc(OC(F)(F)F)cc2)C1 [Example 66, (5R,7S)-5-[4-(Trifluoromethoxy)benzyl]-3-(2,6-dichloro-4-pyridyl)-7-(3-carboxypropanoylamino)-1,3-diazabicyclo[3.3.0]octane-2,4-dione]	101.9 °C
O=C(N[C@@H]1CN2C(=O)N(c3cc(Cl)nc(Cl)c3)C(=O)[C@@]2(Cc2ccc(OC(F)(F)F)cc2)C1)c1ccncc1 [Example 67, (5R,7S)-5-[4-(Trifluoromethoxy)benzyl]-3-(2,6-dichloro-4-pyridyl)-7-(isonicotinoylamino)-1,3-diazabicyclo[3.3.0]octane-2,4-dione]	148 °C
CC(C)(C)OC(=O)c1ccc(C(=O)N[C@H]2CN3C(=O)N(c4cc(Cl)cc(Cl)c4)C(=O)[C@@]3(Cc3ccc(Br)cc3)C2)cc1 [Example 80, (5R, 7R)-5-(4-Bromobenzyl)-3-(3,5-dichlorophenyl)-7-(4-t-butoxycarbonylbenzoylamino)-1,3-diazabicyclo[3.3.0]octane-2,4-dione]	112 °C
CC(=O)N[C@@H]1CN2C(=O)N(c3cc(Cl)nc(Cl)c3)C(=O)[C@@]2(Cc2ccc(OC(F)(F)F)cc2)C1 [Example 64, (5R,7S)-5-[4-(Trifluoromethoxy)benzyl]-3-(2,6-dichloro-4-pyridyl)-7-acetamido-1,3-diazabicyclo[3.3.0]octane-2,4-dione]	126.9 °C
CC(=O)N[C@@H]1CN2C(=O)N(c3cc(Cl)cc(Cl)c3)C(=O)[C@@]2(Cc2ccc(Br)cc2)C1 [Example 48, (5R,7S)-5-(4-Bromobenzyl)-3-(3,5-dichlorophenyl)-7-acetamido-1,3-diazabicyclo[3.3.0]octane-2,4-dione]	140.7 °C
CC(=O)N1CCCC2(Cc3ccc(Br)cc3)C(=O)N(c3cc(Cl)nc(Cl)c3)C(=O)N12 (centres unmarked) [Example 101, 6-(4-Bromobenzyl)-8-(2,6-dichloro-4-pyridyl)-2-acetyl-1,2,8-triazabicyclo[4.3.0]nonane-7,9-dione]	91 °C
CC(=O)Nc1cccc(-c2ccc(CC34CCCN3C(=O)N(c3cc(Cl)cc(Cl)c3)C4=O)cc2)c1 (centres unmarked) [Example 119]	98 °C

Second part, the compound after the results:

melting point	SMILES
123.5 °C	NC1CN2C(=O)N(c3cc(Cl)nc(Cl)c3)C(=O)C2(Cc2ccc(OC(F)(F)F)cc2)C1 (centres unmarked) [Example 281]
120.9 °C	O=C1N(c2cccc(F)c2)C(=O)C2(Cc3ccc(Br)cc3)CCCN12 (centres unmarked) [Example 238]
71.2 °C	C[S+]([O-])c1ccc(CC23CCCN2C(=O)N(c2cc(Cl)cc(Cl)c2)C3=O)cc1 (centres unmarked) [Example 189, 5-(4-Methylsulfinylbenzyl)-3-(3,5-dichlorophenyl)-1,3-diazabicyclo[3.3.0]octane-2,4-dione]
77.1 °C	O=C1N(c2cc(Cl)cc(Cl)c2)C(=O)C2(Cc3ccc(-c4cccc(CO)c4)cc3)CCCN12 (centres unmarked) [Example 222, 5-[4-(3-Hydroxymethylphenyl)benzyl]-3-(3,5-dichlorophenyl)-1,3-diazabicyclo[3.3.0]octane-l2,4-dione]
100.9 °C (dec.)	N#Cc1ccc(CC23CN(C(=O)CCC(=O)O)CCN2C(=O)N(c2cc(Cl)nc(Cl)c2)C3=O)cc1 (centres unmarked) [Example 163, 6-(4-Cyanobenzyl)-4-(3-carboxypropionyl)-8-(2,6-dichloro-4-pyridyl)-1,4,8-triazabicyclo[4.3.0]nonane-7,9-dione]
57.9 °C	CN(C)CCCC(=O)N[C@@H]1CN2C(=O)N(c3cc(Cl)cc(Cl)c3)C(=O)[C@@]2(Cc2ccc(OC(F)(F)F)cc2)C1 [Example 302, (5R, 7S)-5-[4-(Trifluoromethoxy)benzyl]-3-(3,5-dichlorophenyl)-7-[[4-(dimethylamino)butyryl]amino]-1,3-diazabicyclo[3.3.0]octane-2,4-dione]
182.8 °C	O=C1N(c2cc(Cl)nc(Cl)c2)C(=O)C2(Cc3cccc([N+](=O)[O-])c3)CCCN12 (centres unmarked) [Example 239, 5-(3-Nitrobenzyl)-3-(2,6-dichloro-4-pyridyl)-1,3-diazacyclo[3.3.0]octane-2,4-dione]
152.8 °C	CC(=O)NC(CC(=O)N[C@@H]1CN2C(=O)N(c3cc(Cl)nc(Cl)c3)C(=O)[C@@]2(Cc2ccc(OC(F)(F)F)cc2)C1)C(N)=O (stereo partly drawn) [Example 256, (5R, 7S)-5-[4-(Trifluoromethoxy)benzyl]-3-(2,6-dichloro-4-pyridyl)-7-[(3-carbamoyl-3-acetylaminopropanoyl)amino]-1,3-diazabicyclo[3.3.0]octane-2,4-dione]
66 °C	O=C1N(c2cccc(Cl)c2)C(=O)C2(Cc3ccc(Br)cc3)CCCN12 (centres unmarked) [Example 230]
103 °C	N#Cc1ccc(CC23CCCN2C(=O)N(c2cc(Cl)c(N)c(Cl)c2)C3=O)cc1 (centres unmarked) [Example 132, 5-(4-Cyanobenzyl)-3-(3,5-dichloro-4-aminophenyl)-1,3-diazabicyclo[3.3.0]octane-2,4-dione]
87.2 °C	CC1(C)COC(c2ccc(CC34CCCCN3C(=O)N(c3cc(Cl)cc(Cl)c3)C4=O)cc2)=N1 (centres unmarked) [Example 159, 6-[4-(4,4-Dimethyl-4,5-dihydro-2-oxazolyl)benzyl]-8-(3,5-dichlorophenyl)-1,8-diazabicyclo[4.3.0]nonane-7,9-dione]
241 °C	N#Cc1cccc(N2C(=O)N3CCCC3(Cc3ccc(Br)cc3)C2=O)c1 (centres unmarked) [Example 234]
212.6 °C	CNC(=O)C1CN2C(=O)N(c3cc(Cl)cc(Cl)c3)C(=O)C2(Cc2ccc(OC(F)(F)F)cc2)C1 (centres unmarked) [Example 314]
72.5 °C	O=C1N(c2cc(Cl)cc(Cl)c2)C(=O)C2(Cc3ccc(S(=O)(=O)C(F)(F)F)cc3)CCCN12 (centres unmarked) [Example 311]
66.5 °C	CC(O)c1cccc(-c2ccc(CC34CCCN3C(=O)N(c3cc(Cl)cc(Cl)c3)C4=O)cc2)c1 (centres unmarked) [Example 223, 5-[4-[3-(!-Hydroxy)ethylphenyl]benzyl]-3-(3,5-dichlorophenyl)-1,3-diazabicyclo[3.3.0]octane-2,4-dione]
112.4 °C	Cc1cc([C@H]2CN3C(=O)N(c4cc(Cl)nc(Cl)c4)C(=O)[C@]3(Cc3ccc(OC(F)(F)F)cc3)C2)c(C)[nH]1 [Example 288, (5R, 7S)-5-[4-(Trifluoromethoxy)benzyl]-3-(2,6-dichloro-4-pyridyl)-7-(2,5-dimethylpyrrolyl)-1,3-diazabicyclo[3.3.0]octane-2,4-dione]
259 °C (dec.)	O=C(O)c1cc(C(=O)O)cc(N2C(=O)N3CCCC3(Cc3ccc(Br)cc3)C2=O)c1 (centres unmarked) [Example 236]

Reference: US7342012B2, “Inhibitors of αLβ2 mediated cell adhesion” (Mitsubishi Tanabe Pharma Corporation, priority 1999, dated 2008)
